For assay [1], the target named is T1, EGFR L858R/T790M/C797S (BaF3-LTC cells) (Homo sapiens, UniProt P00533, C797S/L858R/T790M).
T1 construct: expressed in transfected cells; host or cells: BaF3
Briefly: EGFR degradation HTRF assay, BaF3-LTC cells. The class given is cell-based. A digest of the protocol: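 Cells treated 16 h at 37 °C, 5% CO2 in medium with 0.2% DMSO; top final concentration 10 uM, 5-fold dilution, 8 doses. Lysates read by HTRF (665/620 nm); degradation % versus DMSO high control, DC50 from four-parameter fit, Dmax as maximal degradation.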
For orientation: Time-resolved FRET reads energy transfer from a long-lived donor to a nearby acceptor.

For assay [2], the system named is EGFR Del19/T790M/C797S (H1975-clone #28). In words: EGFR degradation HTRF assay, H1975-clone #28 DTC cells. The class given is cell-based. In outline:
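The test uses H1975 clonal lines carrying lentiviral mutant EGFR with endogenous copies removed, treated 16h at 37° C., 5% CO2. EGFR left in the lysate is quantified by HTRF, and DC50 is derived from an 8-dose curve starting at 10 uM final.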

Setting [3] is: BaF3-LTC cells; EGFR degradation, IC50 (DC50) from curve fit; read-out: DC50(nM) BaF3-LTC.
Setting [4] is: BaF3-LTC cells; maximum percentage of inhibition (degradation); read-out: Dmax (%) BaF3-LTC.
The mark [5] stands for this setting: H1975 # 28 DTC cells; EGFR degradation, IC50 (DC50) from curve fit; read-out: DC50(nM) H1975 # 28 DTC.
Setting [6] is: H1975 # 28 DTC cells; maximum percentage of inhibition (degradation).
Setting [7] is: read-out: DC50(nM) BaF3-LTC; BaF3-LTC cells; EGFR degradation, IC50 (DC50) from curve fit.
The mark [8] stands for this setting: read-out: DC50(nM) H1975 # 28 DTC; H1975 # 28 DTC cells; EGFR degradation, IC50 (DC50) from curve fit.

Like-named read-outs stand apart in the source and are kept apart here.

T1 sequence (P00533 25-1210 T790M/C797S/L858R): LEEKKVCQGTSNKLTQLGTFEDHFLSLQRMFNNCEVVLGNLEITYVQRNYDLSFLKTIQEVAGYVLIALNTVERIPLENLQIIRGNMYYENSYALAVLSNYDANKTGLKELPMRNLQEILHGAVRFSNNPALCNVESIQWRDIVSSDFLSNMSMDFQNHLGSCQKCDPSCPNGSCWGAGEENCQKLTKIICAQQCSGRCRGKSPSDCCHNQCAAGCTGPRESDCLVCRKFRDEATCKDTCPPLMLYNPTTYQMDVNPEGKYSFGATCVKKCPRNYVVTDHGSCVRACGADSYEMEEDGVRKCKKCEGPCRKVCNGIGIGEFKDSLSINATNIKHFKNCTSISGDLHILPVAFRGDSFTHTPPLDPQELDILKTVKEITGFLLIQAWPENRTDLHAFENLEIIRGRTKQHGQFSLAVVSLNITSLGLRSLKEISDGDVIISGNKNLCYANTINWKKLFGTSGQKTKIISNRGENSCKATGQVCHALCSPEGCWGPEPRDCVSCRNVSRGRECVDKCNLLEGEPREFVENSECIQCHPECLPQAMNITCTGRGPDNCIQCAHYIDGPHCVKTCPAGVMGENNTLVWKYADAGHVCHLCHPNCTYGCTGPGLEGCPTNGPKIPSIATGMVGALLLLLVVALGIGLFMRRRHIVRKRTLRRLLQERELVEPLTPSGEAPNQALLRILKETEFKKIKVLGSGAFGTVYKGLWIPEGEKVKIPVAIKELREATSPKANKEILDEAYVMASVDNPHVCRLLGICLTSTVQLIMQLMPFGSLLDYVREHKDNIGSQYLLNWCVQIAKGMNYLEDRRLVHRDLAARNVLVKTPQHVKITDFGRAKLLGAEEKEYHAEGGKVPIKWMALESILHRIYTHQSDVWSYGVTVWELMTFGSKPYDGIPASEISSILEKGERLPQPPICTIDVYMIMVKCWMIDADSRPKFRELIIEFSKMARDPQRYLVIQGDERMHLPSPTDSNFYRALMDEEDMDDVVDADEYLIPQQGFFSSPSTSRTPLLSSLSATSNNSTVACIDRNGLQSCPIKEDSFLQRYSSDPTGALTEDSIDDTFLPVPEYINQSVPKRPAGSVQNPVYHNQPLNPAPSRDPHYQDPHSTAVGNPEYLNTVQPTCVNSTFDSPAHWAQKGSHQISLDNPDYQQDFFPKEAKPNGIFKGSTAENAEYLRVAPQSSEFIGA

With `CCOc1cc(N2CCC(N3CCN(CCc4cc5oc(=O)n(C6CCC(=O)NC6=O)c5cc4C(F)(F)F)CC3)CC2)c(CC)cc1Nc1ncc(Br)c(Nc2ccc3nc(CC)ccc3c2P(C)(C)=O)n1` (stereo not shown) [Example 616, 3-(6-(2-(4-(1-(4-((5-bromo-4-((5-(dimethylphosphoryl)-2-ethylquinolin-6-yl)amino)pyrimidin-2-yl)amino)-5-ethoxy-2-ethylphenyl)piperidin-4-yl)piperazin-1-yl)ethyl)-2-oxo-5-(trifluoromethyl)benzo[d]oxazol-3(2H)-yl)piperidine-2,6-dione], the figures for the DC50 in assay [1] (setting [3]) and in assay [2] (setting [5]) were 43.1 nM and 5.75 nM, respectively. Besides, the Dmax (usually the largest share of the target that was removed) in assay [1] (setting [4]) stood at 83.8%. The “Dmax (%) H1975 # 28 DTC” value in assay [2] (setting [6]) amounted to 70.93%.

For the compound `CCOc1cc(N2CCC(N3CCN(CCCc4cc(F)cc5c4oc(=O)n5C4CCC(=O)NC4=O)CC3)CC2)c(CC)cc1Nc1ncc(Br)c(Nc2ccc3nc(CC)ncc3c2P(C)(C)=O)n1` (stereo not shown) [Example 617, 3-(7-(3-(4-(1-(4-((5-bromo-4-((5-(dimethylphosphoryl)-2-ethylquinazolin-6-yl)amino)pyrimidin-2-yl)amino)-5-ethoxy-2-ethylphenyl)piperidin-4-yl)piperazin-1-yl)propyl)-5-fluoro-2-oxobenzo[d]oxazol-3(2H)-yl)piperidine-2,6-dione], the “Dmax (%) BaF3-LTC” value in assay [1] (BaF3-LTC cells; maximum percentage of inhibition (degradation)) was 91.31%. Moreover, the DC50 – broadly, the midpoint of the concentration-degradation curve – amounted to 5.77 nM in assay [1] (setting [7]) and 1.15 nM in assay [2] (setting [8]). Also, in assay [2] (setting [6]), the “Dmax (%) H1975 # 28 DTC” value worked out at 74.31%.

For the compound `CCOc1cc(N2CCC(N3CCN(CCc4cc(OC)cc5c4oc(=O)n5C4CCC(=O)NC4=O)CC3)CC2)c(CC)cc1Nc1ncc(Br)c(Nc2ccc3nc(CC)ccc3c2P(C)(C)=O)n1` (stereo not shown) [Example 618, 3-(7-(2-(4-(1-(4-((5-bromo-4-((5-(dimethylphosphoryl)-2-ethylquinolin-6-yl)amino)pyrimidin-2-yl)amino)-5-ethoxy-2-ethylphenyl)piperidin-4-yl)piperazin-1-yl)ethyl)-5-methoxy-2-oxobenzo[d]oxazol-3(2H)-yl)piperidine-2,6-dione], the DC50 in assay [1] (setting [3]) turned out to be 53.2 nM; in assay [2] (setting [5]), 2.14 nM. Also, the greatest degradation seen (Dmax) in assay [1] (setting [4]) was 74.2%. Besides, in assay [2] (setting [6]), the “Dmax (%) H1975 # 28 DTC” value was determined as 74.88%.

Take `CCOc1cc(N2CCC(N3CCN(CCOCCc4cccc5c4oc(=O)n5C4CCC(=O)NC4=O)CC3)CC2)c(CC)cc1Nc1ncc(Br)c(Nc2ccc3nc(CC)ccc3c2P(C)(C)=O)n1` (stereo not shown) [Example 619, 3-(7-(2-(2-(4-(1-(4-((5-bromo-4-((5-(dimethylphosphoryl)-2-ethylquinolin-6-yl)amino)pyrimidin-2-yl)amino)-5-ethoxy-2-ethylphenyl)piperidin-4-yl)piperazin-1-yl)ethoxy)ethyl)-2-oxobenzod[d]oxazol-3(2H)-yl)piperidine-2,6-dione]: the DC50 is 11.2 nM in assay [1] (setting [3]) and 0.91 nM in assay [2] (setting [5]). The Dmax in assay [1] (setting [4]) is 92.1%. Also, in assay [2] (setting [6]), the “Dmax (%) H1975 # 28 DTC” value came out at 62.88%.

`CCOc1cc(N2CCC(N3CCN(CCCc4cc(F)cc5c4oc(=O)n5C4CCC(=O)NC4=O)CC3)CC2)c(CC)cc1Nc1ncc(Br)c(Nc2cc(F)c3nc(CC)ccc3c2P(C)(C)=O)n1` (stereo not shown) [Example 620, 3-(7-(3-(4-(1-(4-((5-bromo-4-((5-(dimethylphosphoryl)-2-ethyl-8-fluoroquinolin-6-yl)amino)pyrimidin-2-yl)amino)-5-ethoxy-2-ethylphenyl)piperidin-4-yl)piperazin-1-yl)propyl)-5-fluoro-2-oxobenzo[d]oxazol-3(2H)-yl)piperidine-2,6-dione]: the figures for the DC50 in assay [1] (setting [3]) and in assay [2] (setting [5]) were 8.28 nM and 2.04 nM, respectively. Further, the Dmax in assay [1] (setting [4]) was 93.8%. In addition, in assay [2] (setting [6]), the “Dmax (%) H1975 # 28 DTC” value was found to be 78.78%.

In the case of `CCOc1cc(N2CCC(N3CCN(CC4CCN(c5cc(F)cc6c5oc(=O)n6C5CCC(=O)NC5=O)CC4)CC3)CC2)c(CC)cc1Nc1ncc(Br)c(Nc2ccc3nc(CC)ccc3c2P(C)(C)=O)n1` (stereo not shown) [Example 621, 3-(7-(4-((4-(1-(4-((5-bromo-4-((5-(dimethylphosphoryl)-2-ethylquinolin-6-yl)amino)pyrimidin-2-yl)amino)-5-ethoxy-2-ethylphenyl)piperidin-4-yl)piperazin-1-yl)methyl)piperidin-1-yl)-5-fluoro-2-oxobenzo[d]oxazol-3(2H)-yl)piperidine-2,6-dione], the DC50 in assay [1] (setting [3]) came to 15 nM; in assay [2] (setting [5]), 1.61 nM. In addition, the Dmax in assay [1] (setting [4]) came out at 93.9%. Further, in assay [2] (setting [6]), the “Dmax (%) H1975 # 28 DTC” value is given as 77.44%.

Turning to `CCOc1cc(N2CCC(N3CCN(CC4CN(c5cccc6c5n(C)c(=O)n6C5CCC(=O)NC5=O)C4)CC3)CC2)c(CC)cc1Nc1ncc(Br)c(Nc2ccc3c(=O)n(CC)ncc3c2P(C)(C)=O)n1` (stereo not shown) [Example 622, 3-(4-(3-((4-(1-(4-((5-bromo-4-((5-(dimethylphosphoryl)-2-ethyl-1-oxo-1,2-dihydrophthalazin-6-yl)amino)pyrimidin-2-yl)amino)-5-ethoxy-2-ethylphenyl)piperidin-4-yl)piperazin-1-yl)methyl)azetidin-1-yl)-3-methyl-2-oxo-2,3-dihydro-1H-benzo[d]imidazol-1-yl)piperidine-2,6-dione], the results for the DC50 in assay [1] (setting [3]) and in assay [2] (setting [5]) were 37.3 nM and 4.78 nM, respectively. Also, in assay [1] (setting [4]), the Dmax is 94%. Besides, the “Dmax (%) H1975 # 28 DTC” value in assay [2] (setting [6]) came to 75.46%.

With `CCOc1cc(N2CCC(N3CCN(C[C@@H]4CCN(c5cccc6c5oc(=O)n6C5CCC(=O)NC5=O)C4)CC3)CC2)c(CC)cc1Nc1ncc(Br)c(Nc2ccc3c(=O)n(CC)ncc3c2P(C)(C)=O)n1` (stereo partly drawn) [Example 623, 3-(7-((S)-3-((4-(1-(4-((5-bromo-4-((5-(dimethylphosphoryl)-2-ethyl-1-oxo-1,2-dihydrophthalazin-6-yl)amino)pyrimidin-2-yl)amino)-5-ethoxy-2-ethylphenyl)piperidin-4-yl)piperazin-1-yl)methyl)pyrrolidin-1-yl)-2-oxobenzo[d]oxazol-3(2H)-yl)piperidine-2,6-dione], the figures for the DC50 in assay [1] (setting [3]) and in assay [2] (setting [5]) were 17.1 nM and 1.31 nM, respectively. For the same compound, the Dmax in assay [1] (setting [4]) stood at 92%. Also, in assay [2] (setting [6]), the “Dmax (%) H1975 # 28 DTC” value is given as 75.76%.

Consider `CCOc1cc(N2CCC(N3CCN(CCc4ccc5c(oc(=O)n5C5CCC(=O)NC5=O)c4Cl)CC3)CC2)c(CC)cc1Nc1ncc(Br)c(Nc2ccc3nc(CC)ccc3c2P(C)(C)=O)n1` (stereo not shown) [Example 624, 3-(6-(2-(4-(1-(4-((5-bromo-4-((5-(dimethylphosphoryl)-2-ethylquinolin-6-yl)amino)pyrimidin-2-yl)amino)-5-ethoxy-2-ethylphenyl)piperidin-4-yl)piperazin-1-yl)ethyl)-7-chloro-2-oxobenzo[d]oxazol-3(2H)-yl)piperidine-2,6-dione], for which the results for the DC50 in assay [1] (setting [3]) and in assay [2] (setting [5]) were 21.9 nM and 1.05 nM, respectively. In assay [1] (setting [4]), the Dmax was found to be 95.4%. For the same compound, the “Dmax (%) H1975 # 28 DTC” value in assay [2] (setting [6]) was 73.81%.

Take `CCOc1cc(N2CCC(N3CCN(C(=O)CCC4CN(c5cccc6c5oc(=O)n6C5CCC(=O)NC5=O)C4)CC3)CC2)c(CC)cc1Nc1ncc(Br)c(Nc2ccc3nc(CC)ccc3c2P(C)(C)=O)n1` (stereo not shown) [Example 625, 3-(7-(3-(3-(4-(1-(4-((5-bromo-4-((5-(dimethylphosphoryl)-2-ethylquinolin-6-yl)amino)pyrimidin-2-yl)amino)-5-ethoxy-2-ethylphenyl)piperidin-4-yl)piperazin-1-yl)-3-oxopropyl)azetidin-1-yl)-2-oxobenzo[d]oxazol-3(2H)-yl)piperidine-2,6-dione]: the DC50 in assay [1] (setting [7]) was found to be 11 nM; in assay [2] (setting [8]) it was 1.86 nM. In assay [1] (read-out: Dmax (%) BaF3-LTC, BaF3-LTC cells; maximum percentage of inhibition (degradation)), the Dmax is 88.8%. The “Dmax (%) H1975 # 28 DTC” value in assay [2] (setting [6]) is 80.1%.

(Values after patent US20230265116A1, “DEGRADATION OF (EGFR) BY CONJUGATION OF EGFR INHIBITORS WITH E3 LIGASE LIGAND AND METHODS OF USE” (BEIGENE, LTD., priority 2020, published 2023).)
